Experimental data from article PMC10725991, “Kaempferol is a novel antiviral agent against channel catfish virus infection through blocking viral attachment and penetration in vitro” (Frontiers in Veterinary Science, 2023).

Legend:
[1] = test system: CCV (strain VR-665) in CCO cells; test: Antiviral activity screening assay, CCV gene expression by RT-qPCR; assay type: cell-based, Channel catfish virus (CCV, Ictalurid herpesvirus 1); details: maximum safe concentration, added 1 h after CCV infection, 36 h
Procedure: To test the anti-CCV effect of tested compounds in the preliminary screening, CCO cells were seeded in 24-well plates and cultured to reach approximately 90% confluence in each well at 28°C. Subsequently, the cells were infected with the CCV at 10^3 TCID50/ml at 28°C for 1 h. After that, the cell culture medium was replaced using an isopycnic DMEM medium containing the maximum safe concentration of indicated compounds. CCV-infected cells treated with DMSO served as a negative control, whereas CCV-infected cells treated with acyclovir (2.5 μg/mL) served as a positive control ([33]). […] According to the percentage inhibition results, we further detected the antiviral activity of kaempferol at maximum safe concentration by viral cytopathic effects (CPE) and western blot analysis.
For RT-qPCR, the total RNA was isolated from CCV-infected cells using RnaExTM (Trizol)^a reagent (GENERAY, China), and reversed transcribed applying a HiScript III RT SuperMix with gDNA wiper (Vazyme, China) following the manufacturer’s instructions. Quantitative PCR was performed with a LightCycler 96 Real-Time PCR Detection System (Roche, USA) using ChamQ Universal SYBR qPCR Master Mix (Vazyme, China) with the following cycle conditions: 95°C for 30 s, followed by 40 cycles of 95°C for 10 s and 60°C for 30 s. […] Fold changes of the selected gene vs 18 s (internal reference) were calculated by the 2^−△△Ct method. […]

CCV in CCO cells [2] = test: Liquid plaque assay; assay type: cell-based, Channel catfish virus (CCV; details: Ictalurid herpesvirus 1; kaempferol 10 μg/mL, 36 h; read-out: inhibition of viral plaque formation
Procedure: For analyzing the CPE reduction of viral infected CCO cells by kaempferol, the CCO cells were seeded in 24-well plates and cultured overnight at 28°C before infection. Then, the monolayer cells were infected with CCV at 10^3 TCID50/ml for 1 h. Subsequently, the infected cells were treated with kaempferol at different concentrations (2.5, 5, 7.5, 10, 12.5, and 15 μg/mL), respectively. The CCO cells without CCV and drug treatment were set as mock control whereas the virus-infected cells without compound treatment were set as CCV control. Each sample was directly observed and photographed under an inverted microscope at 24 and 36 h post-infection. Meanwhile, the plaque assay was performed as described in previous studies with slight modifications ([34]). Briefly, confluent cells in 24-well plates were infected with CCV (10^3 TCID50/ml) for 1 h. Subsequently, the inoculums were removed and the kaempferol with different concentrations (2.5, 5, 7.5, 10, 12.5, and 15 μg/mL) was added and remained throughout the experiment. The cells were fixed and stained with 1% crystal violet and then photographed at 36 h post-infection.
Figure 4 CPE and plaque reduction in CCO cells treated with kaempferol. (A) The cells were incubated with different concentrations of kaempferol (2.5, 5.0, 7.5, 10, 12.5 and 15.0 μg/mL) after CCV infection 1 h. […]

CCV in CCO cells [3] = test: Time-of-drug-addition assay, RT-qPCR; assay type: cell-based, Channel catfish virus (CCV, Ictalurid herpesvirus 1)
Procedure: The CCO cells seeded in 24-well plates were infected with CCV under five different treatment conditions: (i) Control: CCO cells cultured in the maintenance DMEM media were infected by CCV for 1 h. (ii) Pre-treatment: CCO cells were pre-treated with 15 μg/mL of kaempferol for 2 h before CCV infection. (iii) Virus treatment: CCV was pre-incubated with kaempferol at 37°C for 2 h before being added to CCO cells. (iv) Virus and kaempferol co-treatment: CCO cells were treated in media containing both kaempferol and CCV at 28°C for 1 h. (v) Post-treatment: CCO cells were incubated with CCV at 28°C for 1 h. After that, kaempferol (15 μg/mL) was supplemented at 1, 2, 4, 8, 12, and 24 h post-infection. In all treatment conditions, the unabsorbed CCV was washed off twice by PBS after 1 h of adsortion. The samples were collected to test the CCV gene expression by the RT-qPCR at 24 h and 36 h after the corresponding treatments.
For RT-qPCR, the total RNA was isolated from CCV-infected cells using RnaExTM (Trizol)^a reagent (GENERAY, China), and reversed transcribed applying a HiScript III RT SuperMix with gDNA wiper (Vazyme, China) following the manufacturer’s instructions. Quantitative PCR was performed with a LightCycler 96 Real-Time PCR Detection System (Roche, USA) using ChamQ Universal SYBR qPCR Master Mix (Vazyme, China) with the following cycle conditions: 95°C for 30 s, followed by 40 cycles of 95°C for 10 s and 60°C for 30 s. To assess the specificity of each amplicon, melt curve analysis was also performed at the end of each thermal profile. The primers used for PCR are listed in Supplementary Table S2. Each individual sample was run in triplicate wells. Fold changes of the selected gene vs 18 s (internal reference) were calculated by the 2^−△△Ct method.
Figure 5 Time of drug-addition assay of kaempferol in CCV inhibition. (A) The schematic diagram of the experimental settings. The CCO cells were infected with CCV for 1 h followed by the indicated kaempferol treatments. Cell lysates at indicated time post-infection were subjected to RT-qPCR. (B,C) The relative expression levels of the CCV ORF 39 and ORF 59 genes with cell-treatment, virus-treatment and co-treatment at 24 h and 36 h post-infection. (D) The relative expression levels of the CCV ORF 39 and ORF 59 genes with post-treatment at 36 h post-infection. The selected gene level was normalized to 18 s (internal reference) using the 2^− ΔΔCT method. Data represent mean ± SD. The p value was determined by *p < 0.05, **p < 0.01.

[4] = test system: CCV-induced CPE in CCO cells; test: CPE reduction assay; assay type: cell-based, Channel catfish virus (CCV, Ictalurid herpesvirus 1)
Procedure: To test the anti-CCV effect of tested compounds in the preliminary screening, CCO cells were seeded in 24-well plates and cultured to reach approximately 90% confluence in each well at 28°C. Subsequently, the cells were infected with the CCV at 10^3 TCID50/ml at 28°C for 1 h. After that, the cell culture medium was replaced using an isopycnic DMEM medium containing the maximum safe concentration of indicated compounds. CCV-infected cells treated with DMSO served as a negative control, whereas CCV-infected cells treated with acyclovir (2.5 μg/mL) served as a positive control ([33]). After 36 h treatment, cell lysates were collected to test the CCV gene expression by the RT-qPCR, and the percentage inhibition of CCV infection by individual compound was calculated. According to the percentage inhibition results, we further detected the antiviral activity of kaempferol at maximum safe concentration by viral cytopathic effects (CPE) and western blot analysis.
For analyzing the CPE reduction of viral infected CCO cells by kaempferol, the CCO cells were seeded in 24-well plates and cultured overnight at 28°C before infection. Then, the monolayer cells were infected with CCV at 10^3 TCID50/ml for 1 h. Subsequently, the infected cells were treated with kaempferol at different concentrations (2.5, 5, 7.5, 10, 12.5, and 15 μg/mL), respectively. […]

For O=c1c(O)c(-c2ccc(O)cc2)oc2cc(O)cc(O)c12 [Kaempferol], the “inhibitory rate of CCV ORF 39 and 59 genes” value [1] was 99.9%, the inhibition at 10 µg/mL (CCV in CCO cells [2]) was about 100% and the “intracellular CCV mRNA level, pre-treatment of cells” value (CCV in CCO cells [3]; 15 μg/mL for 2 h before CCV infection, 24 h post CCV infection) was “effectively decreased”. For the same compound, the “intracellular CCV mRNA level, post-treatment” value (CCV in CCO cells [3]; 15 μg/mL kaempferol supplemented 1-24 h post-infection, read at 36 h) was “significantly reduced”, the “viral ORF 39 and ORF 59 mRNA levels, co-treatment” value (CCV in CCO cells [3]; 15 μg/mL kaempferol with CCV at 28°C for 1 h) was “failed to decrease” and the “decrease of viral mRNA level, kaempferol supplemented at 24 h post-infection” value (CCV in CCO cells [3]; 15 μg/mL, post-treatment, read at 36 h post-infection) was “approximately 40%”. For the same compound, the “intracellular CCV mRNA level, virus-treatment” value (CCV in CCO cells [3]; CCV pre-incubated with kaempferol 2 h before addition to cells) was “significantly reduced”, the “CCV-induced CPE” value ([4]; kaempferol 10–15 μg/mL, until 36 h) was “no obvious CPE” and the “CPE induced by CCV infection” value ([4]; maximum safe concentration (47.53 μg/mL), 36 h post-infection) was “significantly reduced CPE”.
